Measured values from patent US20260137698A1, “CYCLIN-DEPENDENT KINASE 7 INHIBITORS” (JOINT STOCK COMPANY «BIOCAD», priority 2022, published 2026).

How the values were obtained:
CDK7/Cyclin H/MNAT1 = CDK7/Cyclin H/MNAT1 (Homo sapiens, UniProt P50613); test: Inhibition of CDK7/Cyclin H/MNAT1 kinase activity (ADP-Glo); assay type: biochemical; details: mean value from several measurements; read-out: IC50 CDK7/Cyclin H/MNAT
Experimental: (§1) Measurements were carried out in a 5 μl reaction volume using a 384-well plate (Corning Inc., order no. 4513). The analyzed substances were titrated from 50 μM in increments of 4 at 11 concentration points in a normal strength kinase buffer A (Thermo Fisher Scientific Inc, cat. no. PV3189) supplemented with DTT (Sigma, orde. no. 646563-10X.5ML) and prepared with water (Panreac, order no. 701074). Kinase was diluted in an analogous buffer, mixed with test compounds in plate wells and preincubated for 10 minutes at 25° C. Following incubation, a mixture of reaction substrate (CDKtide (SignalChem, order no. C06-58) or Histone H1 (SignalChem, order no. H10-54N) or PDKtide (SignalChem, order no. P10-58) and ATP (SignalChem, order no. V915B) prepared on a normal strength kinase buffer A was added. 1% solution of dimethyl sulfoxide (DMSO) (Sigma-Aldrich, order no. D2438) in the reaction volume was used as a negative control. The final concentrations of all reaction components are shown in Table 5. The plate was centrifuged at 400 rcf (Eppendorf, 5804 R) for 1 minute and incubated for 40-60 minutes at 25° C. The amount of ATP consumed in the kinase reaction was then measured using the ADP-Glo™ detection system. Luminescence signal was measured using Spark 20M tablet multifunction reader (Tecan Group Ltd, Switzerland). IC50 value was calculated using Magellan 7.2 (Tecan Group Ltd, Switzerland) by approximating experimental points by four-parameter model with the optimization by Levenberg-Marquardt:
(§2) [formula] • where A is the upper asymptote; D is the lower asymptote; C is IC50, half-maximal inhibitory concentration of kinase, nM; B is the curvature (slope).

CDK2/Cyclin A = CDK2/Cyclin A (Homo sapiens, UniProt P24941); test: Inhibition of CDK2/Cyclin A kinase activity (ADP-Glo); assay type: biochemical; details: mean value from several measurements; read-out: IC50 CDK2/Cyclin A
Experimental: as §1, §2

CDK9/Cyclin K = CDK9/Cyclin K (Homo sapiens, UniProt P50750); test: Inhibition of CDK9/Cyclin K kinase activity (ADP-Glo); assay type: biochemical; details: mean value from several measurements; read-out: IC50 CDK9/Cyclin K
CDK9/Cyclin K, sequence (P50750 whole entry): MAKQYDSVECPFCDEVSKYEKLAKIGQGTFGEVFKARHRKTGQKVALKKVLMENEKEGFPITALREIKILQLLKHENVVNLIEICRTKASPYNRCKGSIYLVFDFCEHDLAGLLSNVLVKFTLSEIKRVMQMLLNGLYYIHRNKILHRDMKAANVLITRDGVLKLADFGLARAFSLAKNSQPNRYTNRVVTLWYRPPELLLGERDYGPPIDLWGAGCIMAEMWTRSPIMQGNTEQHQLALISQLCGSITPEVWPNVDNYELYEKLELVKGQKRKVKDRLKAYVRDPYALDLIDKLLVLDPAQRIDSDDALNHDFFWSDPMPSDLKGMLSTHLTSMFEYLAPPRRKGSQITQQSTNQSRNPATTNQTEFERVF
CDK9/Cyclin K, sequence (O75909 whole entry partner): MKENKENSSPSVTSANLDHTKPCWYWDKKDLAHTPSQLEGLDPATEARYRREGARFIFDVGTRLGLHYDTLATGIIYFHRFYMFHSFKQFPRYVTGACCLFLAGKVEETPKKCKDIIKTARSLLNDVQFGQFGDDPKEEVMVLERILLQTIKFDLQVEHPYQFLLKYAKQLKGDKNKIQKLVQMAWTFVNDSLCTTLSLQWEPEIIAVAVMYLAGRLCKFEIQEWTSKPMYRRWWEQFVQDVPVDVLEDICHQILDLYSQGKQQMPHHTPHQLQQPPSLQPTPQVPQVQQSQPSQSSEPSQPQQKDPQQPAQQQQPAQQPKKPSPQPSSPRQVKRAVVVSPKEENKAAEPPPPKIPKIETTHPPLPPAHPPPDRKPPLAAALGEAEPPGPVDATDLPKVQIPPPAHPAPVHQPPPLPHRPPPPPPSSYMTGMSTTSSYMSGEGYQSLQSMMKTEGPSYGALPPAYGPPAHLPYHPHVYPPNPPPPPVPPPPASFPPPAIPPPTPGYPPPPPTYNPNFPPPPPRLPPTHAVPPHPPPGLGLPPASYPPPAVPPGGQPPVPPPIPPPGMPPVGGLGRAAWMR
Experimental: as §1, §2

[1] = system: MDA-MB-468 (triple negative breast cancer); test: Antiproliferative assay on MDA-MB-468 cells (AlamarBlue, 96 h); assay type: cell-based; details: Homo sapiens, mean value from several measurements
Experimental: The antiproliferative activity of CDK7 inhibitors according to the present invention was evaluated in a cell test using continuous cell cultures: MDA-MB-468 (triple negative breast cancer, ATCC® HTB-132™) and NCl-H82 (small cell lung cancer, ATCC® HTB-175™) using a viable AlamarBlue dye (Thermo Fisher Scientific Inc, order no. DAL1100). The cells were grown in DMEM (PanEco, order no. C330π) and RPMI-1640 (PanEco, order no. C330π), respectively. The basal growth medium was enriched with L-glutamine at a concentration of 2 mM (PanEco, order no. Φ032) and 10% fetal bovine serum (Gibco, order no. 16140-071). The night before measurement, MDA-MB-468 adherent cells were detached from plastic with a solution of trypsin-EDTA (PanEco, order no. Π039π), the solution was then inactivated by a DMEM complete medium, centrifuged at 1000 RPM (Eppendorf, 5804 R), a suspension of cells was prepared in a DMEM complete medium, introduced into 96-well culture plates (Corning Inc, order no. 3599) at 8×10^3 cells in 100 μl of medium per well. The next day, test compounds were dissolved in DMSO and diluted with a DMEM complete medium to a final concentration ranging from 50 μM to 10 pM. Diluted compounds in a volume of 50 μl were introduced into the plate wells with cells in triplicates (the final concentration of DMSO was no more than 1%) and incubated at 37° C. in an incubator with 5% CO2 for 96 hours. NCl-H82 suspension cell line was prepared on the day of the analysis. 10×10^3 cells in 100 μl of an RPMI-1640 complete medium were added to each well of a 96-well plate. The procedure for sample dilution is as described above. Cells with test compounds were incubated at 37° C. in an incubator with 5% CO2 for 120 hours. Following incubation, […] of AlamarBlue reagent (Thermo Fisher Scientific Inc., order no. DAL1100) was added to the wells, the contents of the plates were stirred in an orbital shaker (Biosan, Latvia), then further incubated for 5.5-6 hours at 37° C. in an incubator with 5% CO2. The number of viable cells was detected using the Infinite M200Pro microplate spectrophotometer (Tecan Group Ltd, Switzerland) by way of measuring a fluorescent signal at an excitation wavelength (λEx) of 540 nm and an emission wavelength (λEm) of 590 nm.
IC50 value was calculated using the Magellan software (Tecan Group Ltd, Switzerland) by approximating experimental points by four-parameter model with the optimization by Levenberg-Marquardt: […]

[2] = General cytotoxicity on primary differentiated HepaRG cells (72 h); assay type: cell-based; details: human, general toxicity, mean value from several measurements
Source text: General cytotoxicity of CDK7 inhibitors according to the present invention was investigated using primary differentiated HepaRG cells (Biopredic Int, order no. HPR101). A week before the measurement, the cells were thawed and maintained in Basal hepatic cell medium (Biopredic Int, order no. MIL700079) supplemented with HepaRG maintenance/metabolism medium supplement with antibiotics (Biopredic Int, order no. ADD620C). The medium in vials with cells was changed every 2-3 days. The night before the test, the cells were plated in wells of 96-well plates (Corning Inc., order no. 3599) at 25×10^3 cells in 100 μl of medium per well. The next day, test compounds were introduced into plate wells with cells, untitrated at a concentration ranging from 200 μM to 0.2 nM, and incubated for 72 hours. Cell viability was assessed as described above.

CDK7/Cyclin H/MNAT1, sequence (P50613 whole entry): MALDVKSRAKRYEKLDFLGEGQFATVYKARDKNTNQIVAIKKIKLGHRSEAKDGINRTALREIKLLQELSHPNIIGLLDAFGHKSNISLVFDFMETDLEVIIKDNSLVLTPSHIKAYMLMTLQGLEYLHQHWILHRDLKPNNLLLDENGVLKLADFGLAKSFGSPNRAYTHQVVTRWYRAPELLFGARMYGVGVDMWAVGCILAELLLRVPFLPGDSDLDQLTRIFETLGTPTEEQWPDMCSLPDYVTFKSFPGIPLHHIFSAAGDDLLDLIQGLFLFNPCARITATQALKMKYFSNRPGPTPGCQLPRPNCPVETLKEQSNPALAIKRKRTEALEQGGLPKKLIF
CDK7/Cyclin H/MNAT1, sequence (P51946 whole entry partner): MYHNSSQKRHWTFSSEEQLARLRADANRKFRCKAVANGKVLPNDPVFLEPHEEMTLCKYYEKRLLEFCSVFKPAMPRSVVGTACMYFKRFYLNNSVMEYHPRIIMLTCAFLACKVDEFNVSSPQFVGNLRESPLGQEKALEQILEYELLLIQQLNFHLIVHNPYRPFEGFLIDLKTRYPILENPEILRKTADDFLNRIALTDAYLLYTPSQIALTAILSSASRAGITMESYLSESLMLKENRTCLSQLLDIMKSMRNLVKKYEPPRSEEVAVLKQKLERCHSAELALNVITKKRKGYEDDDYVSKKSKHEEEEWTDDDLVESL
CDK7/Cyclin H/MNAT1, sequence (P51948 whole entry partner): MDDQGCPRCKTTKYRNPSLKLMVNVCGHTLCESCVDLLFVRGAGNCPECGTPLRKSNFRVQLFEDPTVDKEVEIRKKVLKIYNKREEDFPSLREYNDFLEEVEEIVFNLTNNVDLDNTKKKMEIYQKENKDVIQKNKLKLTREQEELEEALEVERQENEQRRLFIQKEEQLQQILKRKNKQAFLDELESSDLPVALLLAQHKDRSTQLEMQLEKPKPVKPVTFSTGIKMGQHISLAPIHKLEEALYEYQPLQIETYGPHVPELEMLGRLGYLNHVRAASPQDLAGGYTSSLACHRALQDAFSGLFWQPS

## O=C(c1ccccc1)c1cc(-c2nc(N[C@H]3CCCNC3)ncc2C(F)(F)F)c[nH]1 [CDK7_535, 4-(5-benzoyl-1H-pyrrol-3-yl)-N-[(3S)-piperidin-3-yl]-5-(trifluoromethyl) pyrimidin-2-amine]
CDK7/Cyclin H/MNAT1
  IC50: 5 to 50 nM
CDK2/Cyclin A
  IC50: > 200 nM
CDK9/Cyclin K
  IC50: 50 to 200 nM
[1]
  IC50: 100 to 1000 nM
[2]
  CC50 at 72 h: > 2000 nM

## NC(=O)c1cc(-c2nc(N[C@H]3CCCNC3)ncc2C(F)(F)F)c[nH]1 [CDK7_537, 4-(2-{[(3S)-piperidin-3-yl]amino}-5-(trifluoromethyl)pyrimidin-4-yl)-1H-pyrrole-2-carboxamide]
CDK7/Cyclin H/MNAT1
  IC50: 5 to 50 nM
CDK2/Cyclin A
  IC50: > 200 nM
CDK9/Cyclin K
  IC50: 5 to 50 nM
[1]
  IC50: 100 to 1000 nM
[2]
  CC50 at 72 h: 100 to 500 nM

## O=C(Nc1ccccc1)c1cc(-c2nc(N[C@H]3CCCNC3)ncc2C(F)(F)F)c[nH]1 [CDK7_538, N-phenyl-4-(2-{[(3S)-piperidin-3-yl]amino}-5-(trifluoromethyl)pyrimidin-4-yl)-1H-pyrrole-2-carboxamide]
CDK7/Cyclin H/MNAT1
  IC50: 5 to 50 nM
CDK2/Cyclin A
  IC50: > 200 nM
CDK9/Cyclin K
  IC50: 50 to 200 nM
[1]
  IC50: 100 to 1000 nM
[2]
  CC50 at 72 h: 500 to 2000 nM

## Nc1ccccc1Nc1nc(N[C@H]2CCCNC2)ncc1C(F)(F)F [CDK7_550, N4-(2-aminophenyl)-N2-[(3S)-piperidin-3-yl]-5-(trifluoromethyl) pyrimidine-2,4-diamine]
CDK7/Cyclin H/MNAT1
  IC50: 50 to 200 nM
CDK2/Cyclin A
  IC50: > 200 nM
[1]
  IC50: > 1000 nM
[2]
  CC50 at 72 h: > 2000 nM

## FC(F)(F)c1cnc(N[C@H]2CCCNC2)nc1Oc1ccccc1 [CDK7_754, 4-phenoxy-N-[(3S)-piperidin-3-yl]-5-(trifluoromethyl) pyrimidin-2-amine]
CDK7/Cyclin H/MNAT1
  IC50: 5 to 50 nM
CDK2/Cyclin A
  IC50: > 200 nM
[1]
  IC50: > 1000 nM
[2]
  CC50 at 72 h: > 2000 nM

## FC(F)(F)c1cnc(N[C@H]2CCCNC2)nc1Cc1ccccc1 [CDK7_766, 4-benzyl-N-[(3S)-piperidin-3-yl]-5-(trifluoromethyl) pyrimidin-2-amine]
CDK7/Cyclin H/MNAT1
  IC50: 50 to 200 nM
CDK2/Cyclin A
  IC50: > 200 nM
[1]
  IC50: > 1000 nM
[2]
  CC50 at 72 h: > 2000 nM

## FC(F)(F)c1cnc(N[C@H]2CCCNC2)nc1-n1ccc2ccccc21 [CDK7_809, 4-(1H-indol-1-yl)-N-[(3S)-piperidin-3-yl]-5-(trifluoromethyl)py-rimidin-2-amine]
CDK7/Cyclin H/MNAT1
  IC50: 5 to 50 nM
CDK2/Cyclin A
  IC50: > 200 nM
[1]
  IC50: > 1000 nM
[2]
  CC50 at 72 h: > 2000 nM

## FC(F)(F)c1cnc(N[C@H]2CCCNC2)nc1-n1cnc2ccccc21 [CDK7_810, 4-(1H-1,3-benzodiazol-1-yl)-N-[(3S)-piperidin-3-yl]-5-(trifluoromethyl)py-rimidin-2-amine]
CDK7/Cyclin H/MNAT1
  IC50: 5 to 50 nM
CDK2/Cyclin A
  IC50: > 200 nM
[1]
  IC50: > 1000 nM
[2]
  CC50 at 72 h: > 2000 nM

## FC(F)(F)c1cnc(N[C@H]2CCCNC2)nc1Oc1cccc2c1NCCC2 [CDK7_829, N-[(3S)-piperidin-3-yl]-4-(1,2,3,4-tetrahydroquin-olin-8-yloxy)-5-(trifluoromethyl) pyrimidin-2-amine]
[1]
  IC50: > 1000 nM
[2]
  CC50 at 72 h: > 2000 nM

## FC(F)(F)c1cnc(N[C@H]2CCCNC2)nc1Oc1cccc2cccnc12 [CDK7_830, N-[(3S)-piperidin-3-yl]-4-(quinolin-8-yloxy)-5-(trifluoromethyl) pyrimidin-2-amine]
[1]
  IC50: > 1000 nM
[2]
  CC50 at 72 h: > 2000 nM

## CN1CCc2c(-c3nc(N[C@H]4CCCNC4)ncc3C(F)(F)F)c[nH]c2C1=O [CDK7_843, 6-methyl-3-(2-{[(3S)-piperidin-3-yl]amino}-5-(trifluoromethyl)pyrimidin-4-yl)-1H,4H,5H,6H, 7H-pyrrolo[2,3-c]pyridin-7-one]
CDK7/Cyclin H/MNAT1
  IC50: 5 to 50 nM
CDK2/Cyclin A
  IC50: > 200 nM
CDK9/Cyclin K
  IC50: > 200 nM

## CP(C)(=O)c1cccc(Nc2nc(N[C@H]3CCCNC3)ncc2C(F)(F)F)c1 [CDK7_888, N4-[3-(dimethylphos-phoryl)phenyl]-N2-[(3S)-piperidin-3-yl]-5-(trifluoromethyl) pyrimidine-2,4-diamine]
CDK7/Cyclin H/MNAT1
  IC50: 5 to 50 nM
CDK2/Cyclin A
  IC50: > 200 nM
[1]
  IC50: > 1000 nM
[2]
  CC50 at 72 h: > 2000 nM

## NS(=O)(=O)c1cccc(Nc2nc(N[C@H]3CCCNC3)ncc2C(F)(F)F)c1 [CDK7_891, 3-[(2-{[(3S)-piperidin-3-yl]amino}-5-(trifluoromethyl)pyrimidin-4-yl)amino] benzene-1-sulfonamide]
CDK7/Cyclin H/MNAT1
  IC50: 5 to 50 nM
CDK2/Cyclin A
  IC50: > 200 nM
[1]
  IC50: 100 to 1000 nM

## CP(C)(=O)c1ccccc1Oc1nc(N[C@H]2CCCNC2)ncc1C(F)(F)F [CDK7_897, 4-[2-(dimethylphos-phoryl)phenoxy]-N-[(3S)-piperidin-3-yl]-5-(trifluoromethyl) pyrimidin-2-amine]
CDK2/Cyclin A
  IC50: > 200 nM
[2]
  CC50 at 72 h: > 2000 nM

## CC(=O)Nc1ccccc1Nc1nc(N[C@H]2CCCNC2)ncc1C(F)(F)F [CDK7_898, N-{2-[(2-{[(3S)-piperidin-3-yl]amino}-5-(trifluoromethyl)pyrimidin-4-yl)amino]phenyl} acetamide]
CDK7/Cyclin H/MNAT1
  IC50: 5 to 50 nM
CDK2/Cyclin A
  IC50: > 200 nM
[1]
  IC50: 100 to 1000 nM
[2]
  CC50 at 72 h: > 2000 nM

## O=C1CN(c2nc(N[C@H]3CCCNC3)ncc2C(F)(F)F)c2ccccc2N1 [CDK7_900, 4-(2-{[(3S)-piperidin-3-yl]amino}-5-(trifluoromethyl)pyrimidin-4-yl)-1,2,3,4-tetrahydroquin-oxazolin-2-one]
[2]
  CC50 at 72 h: > 2000 nM

## O=c1[nH]cc(-c2nc(N[C@H]3CCCNC3)ncc2C(F)(F)F)c2ccccc12 [CDK7_921, 4-(2-{[(3S)-piperidin-3-yl]amino}-5-(trifluoromethyl)pyrimidin-4-yl)-1,2-dihydroisoquin-olin-1-one]
CDK7/Cyclin H/MNAT1
  IC50: 5 to 50 nM

## CN(C)C(=O)c1c[nH]cc1-c1nc(N[C@H]2CCCNC2)ncc1C(F)(F)F [CDK7_991, N,N-dimethyl-4-(2-{[(3S)-piperidin-3-yl]amino}-5-(trifluoromethyl)py-rimidin-4-yl)-1H-pyrrole-3-carboxamide]
CDK7/Cyclin H/MNAT1
  IC50: > 200 nM

## CN1CCC[C@H](Nc2ncc(C(F)(F)F)c(-c3c[nH]c(C(=O)N(C)C)c3)n2)C1 [CDK7_1019]
CDK7/Cyclin H/MNAT1
  IC50: 5 to 50 nM
CDK2/Cyclin A
  IC50: > 200 nM
CDK9/Cyclin K
  IC50: > 200 nM
[2]
  CC50 at 72 h: > 2000 nM

## Cn1c(-c2cc(-c3nc(N[C@H]4CCCNC4)ncc3C(F)(F)F)c[nH]2)nc2ccccc21 [CDK7_1124, 4-[5-(1-methyl-1H-1,3-benzodiazol-2-yl)-1H-pyrrol-3-yl]-N-[(3S)-piperidin-3-yl]-5-(trifluoromethyl)py-rimidin-2-amine]
CDK7/Cyclin H/MNAT1
  IC50: 5 to 50 nM
CDK2/Cyclin A
  IC50: > 200 nM
CDK9/Cyclin K
  IC50: > 200 nM
[2]
  CC50 at 72 h: > 2000 nM
